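Growth conditions: 96-well plates. Treatment: test compound, 48 hours, 5 concentrations. Analysis: linear interpolation between bracketing concentrations; unreached endpoints set to highest concentration. The concentration for full growth arrest is given as TGI.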 Where only a bound is given, the exact number is not on record here.

The values below come from PubChem BioAssay (NCI).

Common to all, as to assay: inhibition of tumour cell growth, NCI panel, 48 h
For assay [1], the system named is BT-549 breast.
Assay [2] deals with CAKI-1 renal.
The subject of assay [3] is HCC-2998 colon.
The subject of assay [4] is HCT-116 colon.
The test system of assay [5] is HL-60(TB) leukemia.
Assay [6] deals with IGROV1 ovarian.
Assay [7] concerns M14 melanoma.
The test system of assay [8] is MDA-MB-435.
The subject of assay [9] is OVCAR-8 ovarian.
Assay [10] deals with SF-539 CNS.
Assay [11] relates to TK-10 renal.
The subject of assay [12] is UACC-62 melanoma.
Assay [13] has as its system MDA-MB-231 breast.
Assay [14] has as its system SK-OV-3 ovarian.

Turning to `COC(=O)c1ccccc1/C=C1\Cc2c(C)c3c(c(C)c2C1=O)CCC3`, the TGI in assay [1], in assay [2], in assay [3], in assay [4], in [5] and in assay [6] was greater than 100 µM in each case. For the same compound, the TGI in [7], in assay [8], in [9], in [10], in assay [11] and in [12] was greater than 100 µM each time.

`OC1=C2c3ccccc3NC2Oc2cc(F)ccc21` (centres undefined): the TGI in assay [1] is 48.2 µM; in [2], 48.4 µM; in assay [3], 32.4 µM; in assay [4] it was 28.7 µM; in assay [6], greater than 100 µM; in assay [7] it was 31.8 µM. The TGI in [13] is 33 µM; in [8] it was 33.9 µM; in assay [9], greater than 100 µM; in assay [14] it was 26.6 µM; in assay [11], 47.1 µM; in assay [12], 34.7 µM.

Take `CC1=CC[C@H](C[C@H](C#CCCCC2OCCO2)O[Si](C(C)C)(C(C)C)C(C)C)C(=O)CC1`: the TGI in assay [1], in assay [2], in assay [3], in assay [4], in assay [6] and in assay [7] was greater than 100 µM throughout. In addition, the TGI in [13], in [8], in assay [9], in assay [14], in assay [11] and in assay [12] was greater than 100 µM each time.

As for `NC1C/C(=N\O)c2c(Cl)sc(Cl)c21` (centres undefined), the TGI is 32.9 µM in assay [1]; 32.2 µM in assay [2]; greater than 100 µM in assay [3]; 20.8 µM in [4]; greater than 100 µM in assay [5]; 32 µM in [6]. The TGI is 34.1 µM in assay [7]; 29.5 µM in [8]; 28.8 µM in assay [9]; 22.1 µM in assay [10]; greater than 100 µM in assay [14]; 31.4 µM in [11].

`Cc1ccc(S(=O)(=O)NC(=O)NCc2ccc(S(N)(=O)=O)cc2)cc1`: the TGI in assay [2], in assay [3], in [4], in [5], in assay [6] and in [7] was greater than 100 µM each time. Moreover, the TGI in assay [13], in assay [8], in [10], in assay [14], in [11] and in [12] was greater than 100 µM in each case.

Consider `O=C(/C=C/c1cccc([N+](=O)[O-])c1)N1CCN(CCOC(c2ccccc2)c2ccccc2)CC1`, for which the TGI in assay [1] is greater than 100 µM; in [2] it was greater than 100 µM; in [3] it was 55.2 µM; in assay [4] it was 51.8 µM; in assay [6] it was greater than 100 µM; in assay [7], greater than 100 µM. For the same compound, the TGI in assay [8] was greater than 100 µM; in assay [9], greater than 100 µM; in [14] it was greater than 100 µM; in [11], 47.7 µM; in [12], greater than 100 µM.

Regarding `NCc1ccc(-c2ccc(CN)s2)s1`, the TGI was greater than 100 µM in assay [2]; greater than 100 µM in assay [3]; greater than 100 µM in assay [4]; greater than 100 µM in [5]; 76.3 µM in assay [6]; greater than 100 µM in [7]. Besides, the TGI was greater than 100 µM in assay [13]; greater than 100 µM in [8]; greater than 100 µM in [9]; greater than 100 µM in assay [10]; greater than 100 µM in assay [14]; 68.7 µM in assay [11]. For the same compound, in [12], the TGI is greater than 100 µM.

For the compound `CCCCCCCCCCCCCCCCP(=O)(O)OCC(N)C(=O)O` (centres undefined), the TGI in [2] was 56.2 µM; in [3], greater than 100 µM; in [4], 48.9 µM; in [5], 39.2 µM; in [6], 28.9 µM; in [7], greater than 100 µM. Further, the TGI in [13] was 82.7 µM; in [8], greater than 100 µM; in [9], greater than 100 µM; in assay [10], 72.3 µM; in assay [14], greater than 100 µM; in [12], greater than 100 µM.

`O=C(O)c1cccc(Nc2c(C(=O)O)cccc2[N+](=O)[O-])c1`: the TGI in [1], in [2], in assay [3], in assay [4], in assay [5] and in assay [6] was greater than 100 µM each time. For the same compound, the TGI in [7], in [13], in [9], in assay [10], in assay [14] and in assay [11] was greater than 100 µM each time. The compound further registered a TGI in assay [12] greater than 100 µM.

As for `O=[N+]([O-])/C(C(Cl)=C(Cl)Cl)=C1\Nc2ccc([N+](=O)[O-])cc2N1`, the TGI in [1], in [2], in assay [4], in assay [7], in assay [13] and in assay [8] was greater than 100 µM throughout. The TGI in assay [14], in assay [11] and in assay [12] was greater than 100 µM each time.

In the case of `CC1(n2nc(-c3ccccc3)n(-c3ccccc3)c2=O)CSC1`, the TGI in assay [2], in [3], in assay [4], in assay [5], in assay [6] and in [7] was greater than 100 µM throughout. Besides, the TGI in [9], in [10], in assay [14], in assay [11] and in [12] was greater than 100 µM in each case.
